Patent US20240076609A1, “COMPOSITIONS AND METHODS FOR CULTURING AND EXPANDING CELLS” (LIFE TECHNOLOGIES CORPORATION, priority 2017, published 2024)
Several values for one entry are separate records, joined by “and”; a condition that tells them apart may be missing. Equal entries are not always repeated.

Columns and labels:
[1] = system: mixed CD4+ T cells and CD8+ T cells; experiment: Expansion of mixed CD4+ and CD8+ T cells at set ratios (5:1, 10:1) with 2-DG; assay type: cell-based, human; settings: for Cultured T Cell Population Doublings at 5:1 CD4+:CD8+ Cells / Cultured T Cell Population Doublings at 10:1 CD4+:CD8+ Cells: 0.25 mM 2-DG
Procedure: T cell activation and expansion: T cells (seeding density 1×10^6 vc/mL) were activated with DYNABEADS® Human T-Expander CD3/CD28 (Thermo Fisher Scientific, Cat. No. 11141D) at a ratio of 3 beads per T cell and cultured in serum-free medium, animal origin free medium. T cells were counted on days 5, 7, 10, and 12 on a Vi-CELL XR analyzer (Beckman Coulter, Indianapolis IN) and fed with or without 2-DG (0.25 mM, 0.5 mM, 1 mM, 2 mM, and 4 mM) and 5% human AB serum to a density of 5×10^5 vc/mL on days 3, 5, and 7 and 1×10^6 vc/mL on day 10. For some studies, CD8+ and CD4+ T cells were isolated from PBMCs by negative selection using Untouched Human CD8+ and CD4+ T Cells Kits. Naïve and non-naïve T cells were isolated from enriched T cells by positive selection using CD45RA nanobeads (Miltenyi). CD4+ and CD8+ T cells were mixed at two different CD4+:CD8+ ratios (5:1 and 10:1) to determine the effect of 2-DG on CD8+ T cells. All conditions with and without 2-DG expanded to about 6 to 7 population doublings. Results illustrate that the effect of 2-DG treatment in cell growth was similar in both mixtures. (FIGS. 19 and 20). In FIGS. 38 and 39, CD4+ and CD8+ T cells were mixed at two different CD4:CD8 ratios (5:1 and 10:1) to determine the effect of 2-DG on CD8+ T cells. All conditions with and without 2-DG expanded to about 6 to 7 population doublings. Results illustrate that the effect of 2-DG treatment in cell growth was similar in both mixtures.

[2] = system: Naïve T cells; experiment: CD8+/CD4+ phenotype after 10 days with 2-DG in naïve T cells; assay type: cell-based, human; settings: 4 mM 2-DG
Procedure: For some studies, CD8+ and CD4+ T cells were isolated from PBMCs by negative selection using Untouched Human CD8+ and CD4+ T Cells Kits. Naïve and non-naïve T cells were isolated from enriched T cells by positive selection using CD45RA nanobeads (Miltenyi). Phenotype: Primary human T cells were expanded for 10 days with and without 2-DG and 5% human AB serum. DYNABEADS® were removed from 2×10^6 cells by magnetic separation. Surface staining was performed with antibodies against CD3 (Invitrogen, Cat. No. CD0329), CD4 (Molecular Probes, Cat. No. A15858), CD8 (Invitrogen, Cat. No. MHCD0828). Flow cytometric analysis was performed on a Gallios flow cytometer and Kaluza software (Beckman Coulter, Indianapolis IN). For some studies, CD8+ and CD4+ T cells were isolated from PBMCs by negative selection using Untouched Human CD8+ and CD4+ T Cells Kits. Naïve and non-naïve T cells were isolated from enriched T cells by positive selection using CD45RA nanobeads (Miltenyi). Phenotype: Primary human T cells were expanded for 10 days with and without 2-DG and 5% human AB serum. DYNABEADS® were removed from 2×10^6 cells by magnetic separation. Surface staining was performed with antibodies against CD3 (Invitrogen, Cat. No. CD0329), CD4 (Molecular Probes, Cat. No. A15858), CD8 (Invitrogen, Cat. No. MHCD0828). Flow cytometric analysis was performed on a Gallios flow cytometer and Kaluza software (Beckman Coulter, Indianapolis IN).

[3] = system: Primary human T cells; experiment: T cell expansion with 2-DG introduced at days 0, 3, 5, 7 or at every feed; assay type: cell-based
Procedure: Stimulation of T cells with DYNABEADS® Human T-Expander CD3/CD28 at a ratio of 3 beads per T cell and cultured in serum-free, animal origin free medium and culturing the cells with 2-DG. Followed by feeding the cells with 2-DG at various time points (day 3, day 5, day 7, and every time cells were fed).
Treatment with supplement was started on day 0, 3, 5, 7 and maintained with subsequent feedings. T cells were cultured for 12 days in serum-free T cell medium and in X-VIVO™ 15 medium supplemented with 5% human AB serum.
2-DG was cultured with the cells on day 0, 3, 5, 7 and maintained with subsequent feedings. T cells were cultured for 12 days in serum-free T cell medium and in medium with 5% Human AB Serum.

[4] = system: Primary human T cells; experiment: CD8+/CD4+ phenotype with 2-DG and CD Lipid Concentrate 1 or 2; assay type: cell-based
Procedure: FIGS. 48 and 49 represent the data from Tables 42 and 43 which depicts the gating strategy for differentiation phenotyping. T cells expanded for 10 days were stained with antibodies against CD3, CD4, and CD8. Flow cytometric analysis was performed in a Beckman-Coulter Gallios analyzer.
Phenotype: Primary human T cells were expanded for 10 days with and without 2-DG and 5% human AB serum. DYNABEADS® were removed from 2×10^6 cells by magnetic separation. Surface staining was performed with antibodies against CD3 (Invitrogen, Cat. No. CD0329), CD4 (Molecular Probes, Cat. No. A15858), CD8 (Invitrogen, Cat. No. MHCD0828). Flow cytometric analysis was performed on a Gallios flow cytometer and Kaluza software (Beckman Coulter, Indianapolis IN).
FIGS. 48 and 49 represent the fold increase in CD8:CD4 ratio compared to day 0.

O=CC[C@@H](O)[C@H](O)[C@H](O)CO [2-DG, 2-Deoxy-D-Glucose]
Cultured T Cell Population Doublings at 5:1 CD4+:CD8+ Cells ([1]; day 5): 2.84 and 1.95
Cultured T Cell Population Doublings at 10:1 CD4+:CD8+ Cells ([1]; day 5): 1.97
Cultured T Cell Population Doublings at 5:1 CD4+:CD8+ Cells ([1]; day 7): 5.44 and 2.84
Cultured T Cell Population Doublings at 10:1 CD4+:CD8+ Cells ([1]; day 7): 2.98
Cultured T Cell Population Doublings at 5:1 CD4+:CD8+ Cells ([1]; day 10): 6.17 and 5.44
Cultured T Cell Population Doublings at 10:1 CD4+:CD8+ Cells ([1]; day 10): 5.67
Cultured T Cell Population Doublings at 10:1 CD4+:CD8+ Cells ([1]; day 12): 6.25
population doublings ([1]; CD4+:CD8+ ratios 5:1 and 10:1): 6 to 7 population doublings
% CD4+ (Avg) ([2]; Day 10): 59.69%
% CD8+ (Avg) ([2]; Day 10): 36.66%
% Ratios (CD8+/CD4+) ([2]; Day 10): 2.07
% CD4+ ([2]; Day 10, replicates): 25.82% and 25.23%
% CD8+ ([2]; Day 10, replicates): 52.71% and 53.26%
Fold Increase compared to Baseline ([2]; Day 10 vs Day 0): 3.38
Cultured T Cell Population Doublings ([3]; 0.25 mM 2-DG at Day 0, culture day 0): 0
Cultured T Cell Population Doublings ([3]; 0.25 mM 2-DG at Day 0, culture day 5): 1.71
Cultured T Cell Population Doublings ([3]; 0.25 mM 2-DG at Day 0, culture day 7): 3.69
Cultured T Cell Population Doublings ([3]; 0.25 mM 2-DG at Day 0, culture day 10): 6.53
Cultured T Cell Population Doublings ([3]; 0.25 mM 2-DG at Day 0, culture day 12): 7.47
Cultured T Cell Population Doublings ([3]; 0.25 mM 2-DG at Day 0, day 5): 1.71
Cultured T Cell Population Doublings ([3]; 0.25 mM 2-DG at Day 0, day 7): 3.69
Cultured T Cell Population Doublings ([3]; 0.25 mM 2-DG at Day 0, day 10): 6.53
Cultured T Cell Population Doublings ([3]; 0.25 mM 2-DG at Day 0, day 12): 7.47
Cultured T Cell Population Doublings ([3]; 0.25 mM 2-DG at Day 3, culture day 0): 0
Cultured T Cell Population Doublings ([3]; 0.25 mM 2-DG at Day 3, culture day 5): 1.90
Cultured T Cell Population Doublings ([3]; 0.25 mM 2-DG at Day 3, culture day 7): 3.36
Cultured T Cell Population Doublings ([3]; 0.25 mM 2-DG at Day 3, culture day 10): 5.80
Cultured T Cell Population Doublings ([3]; 0.25 mM 2-DG at Day 3, culture day 12): 6.34
Cultured T Cell Population Doublings ([3]; 0.25 mM 2-DG at Day 3, day 5): 1.90
Cultured T Cell Population Doublings ([3]; 0.25 mM 2-DG at Day 3, day 7): 3.36
Cultured T Cell Population Doublings ([3]; 0.25 mM 2-DG at Day 3, day 10): 5.80
Cultured T Cell Population Doublings ([3]; 0.25 mM 2-DG at Day 3, day 12): 6.34
Cultured T Cell Population Doublings ([3]; 0.25 mM 2-DG at Day 5, culture day 0): 0
Cultured T Cell Population Doublings ([3]; 0.25 mM 2-DG at Day 5, culture day 5): 1.75
Cultured T Cell Population Doublings ([3]; 0.25 mM 2-DG at Day 5, culture day 7): 3.50
Cultured T Cell Population Doublings ([3]; 0.25 mM 2-DG at Day 5, culture day 10): 5.82
Cultured T Cell Population Doublings ([3]; 0.25 mM 2-DG at Day 5, culture day 12): 6.59
Cultured T Cell Population Doublings ([3]; 0.25 mM 2-DG at Day 5, day 5): 1.75
Cultured T Cell Population Doublings ([3]; 0.25 mM 2-DG at Day 5, day 7): 3.50
Cultured T Cell Population Doublings ([3]; 0.25 mM 2-DG at Day 5, day 10): 5.82
Cultured T Cell Population Doublings ([3]; 0.25 mM 2-DG at Day 5, day 12): 6.59
Cultured T Cell Population Doublings ([3]; 0.25 mM 2-DG at Day 7, culture day 0): 0
Cultured T Cell Population Doublings ([3]; 0.25 mM 2-DG at Day 7, culture day 5): 1.70
Cultured T Cell Population Doublings ([3]; 0.25 mM 2-DG at Day 7, culture day 7): 3.48
Cultured T Cell Population Doublings ([3]; 0.25 mM 2-DG at Day 7, culture day 10): 5.83
Cultured T Cell Population Doublings ([3]; 0.25 mM 2-DG at Day 7, culture day 12): 6.44
Cultured T Cell Population Doublings ([3]; 0.25 mM 2-DG at Day 7, day 5): 1.70
Cultured T Cell Population Doublings ([3]; 0.25 mM 2-DG at Day 7, day 7): 3.48
Cultured T Cell Population Doublings ([3]; 0.25 mM 2-DG at Day 7, day 10): 5.83
Cultured T Cell Population Doublings ([3]; 0.25 mM 2-DG at Day 7, day 12): 6.44
population doublings ([3]; 0.25 mM 2-DG at day 0, 3, 5, 7 and every feed): 6 to 7 population doublings
Cultured T Cell Population Doublings ([3]; 0.25 mM 2-DG at every feed, culture day 0): 0
Cultured T Cell Population Doublings ([3]; 0.25 mM 2-DG at every feed, culture day 5): 1.61
Cultured T Cell Population Doublings ([3]; 0.25 mM 2-DG at every feed, culture day 7): 3.80
Cultured T Cell Population Doublings ([3]; 0.25 mM 2-DG at every feed, culture day 10): 6.03
Cultured T Cell Population Doublings ([3]; 0.25 mM 2-DG at every feed, culture day 12): 6.82
Cultured T Cell Population Doublings ([3]; 0.25 mM 2-DG at every feed, day 5): 1.61
Cultured T Cell Population Doublings ([3]; 0.25 mM 2-DG at every feed, day 7): 3.80
Cultured T Cell Population Doublings ([3]; 0.25 mM 2-DG at every feed, day 10): 6.03
Cultured T Cell Population Doublings ([3]; 0.25 mM 2-DG at every feed, day 12): 6.82
fold increase in CD8:CD4 ratio compared to day 0 ([4]; 2-DG with CLC1): 1.6 fold
fold increase in CD8:CD4 ratio compared to day 0 ([4]; 2-DG with CLC2): 1.4 fold
